This is an account of results in EP3454861B1, “BENZOXAZINE OR QUINAZOLINE DERIVATIVES FOR USE IN THE TREATMENT OF ALZHEIMER'S DISEASE” (Biocodex, priority 2016, dated 2017).

Structures are written as SMILES.

One assay has as its system Bax. The assay is described as follows: ELISA of Bax in mouse hippocampus after Aβ25-35. Format: in vivo, souris. An excerpt: (§1) Le 1^er jour : une version « mélangée » (scrambled) du peptide amyloïde β25-35 (Sc.Aβ, témoin négatif) ou le peptide amyloïde β25-35 (Aβ25-35) est injecté par voie intra-cérébroventriculaire (ICV) (le peptide Aβ25-35 provoque l'intoxication cellulaire). Entre le 1^er jour et le 10^ème jour, les traitements sont administrés une fois par jour par voie intrapéritonéale (IP).
(§2) A la fin de la session de rétention d'évitement passif, le 10^ème jour, les animaux sont sacrifiés par décapitation. L'hippocampe et le cortex frontal sont disséqués et congelés dans l'azote liquide. L'hippocampe est utilisé pour mesurer le taux de peroxydation lipidique à l'aide d'une méthode colorimétrique et pour évaluer les taux de 4 marqueurs biochimiques par des tests ELISA. Le cortex est conservé à -80°C en attente d'analyses supplémentaires. Les plasmas sont également conservés en attente d'analyses supplémentaires. Les échantillons biologiques sont jetés après 3 mois.
(§3) Pour tous les dosages, les […] sont homogénéisés, après décongélation, dans un tampon Tris (Tris 50 mM, 150 mM NaCl, pH 7,5) et traités par ultrasons pendant 20 secondes. […] Pour chaque dosage, l'absorbance est lue à 450 nm et la concentration est calculée en utilisant la courbe standard. Les résultats sont exprimés en pg ou ng de marqueur par mg de tissu et en pourcentage de solution Sc.Aβ + véhicule. 6 échantillons par groupe (n = 36 kits ELISA) sont dosés en double.

The next assay deals with GFAP. The assay can be described thus: ELISA of GFAP in mouse hippocampus after Aβ25-35. Format: in vivo, souris.
Description: as §1, §2, §3
(In an ELISA, binding on a coated surface is turned into a signal by an enzyme label.)

The mark [1] stands for this setting: Aβ25-35/Etifoxine 12.5 mg/kg IP.

For the molecule `CCNC1=Nc2ccc(Cl)cc2C(C)(c2ccccc2)O1` (stereo not drawn) [Etifoxine, chlorhydratede 6-chloro-2-éthylamino-4-méthyl-4-phényl-4H-[3,1]benzoxazine], the “Taux de protéine Bax” value with Bax (setting [1]) is 180,1 ± 7,4 % de Sc.Aβ/V; in the assay on Bax (Aβ25-35/Etifoxine 25 mg/kg IP), 132,6± 7,5 % de Sc.Aβ/V; in the assay with Bax (Aβ25-35/Etifoxine 50 mg/kg IP), 99,9 ± 4,2 % de Sc.Aβ/V. The “Expression GFAP” value in the assay with GFAP (setting [1]) is on record as 160,4 ± 10,2 % de Sc.Aβ/V; in the assay on GFAP (Aβ25-35/Etifoxine 25 mg/kg IP), 131,7 ± 4,3 % de Sc.Aβ/V; in the assay with GFAP (Aβ25-35/Etifoxine 50 mg/kg IP), 129,8 ± 2,7 % de Sc.Aβ/V.
